The values below come from the supplement of paper PMC10883282.

This assay relates to RD-ES. Put plainly: relative viability vs DMSO control (72 h) (fraction); higher = more viable cells. The gist of the method:
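A 5 µM positive control and 0.1% DMSO vehicle ran alongside sarcoma cell lines seeded in 384-well plates to reach 80–90% confluence. Serially diluted compound, 2.5 µl from source plates of 10 mM to 0.0002 mM, was added after 24 h, and the plates were held 72 h at 37 °C, 5% CO2. Relative viability was worked out from ATPLite readings as percent growth averaged over up to triplicate wells. The values were rescaled so that 1 is full and 0 is none.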

Where a name gives a salt, the structure may show the parent alone. ± gives the standard deviation of the averaged measurements.

Consider `CC(=O)Nc1cccc(-n2c(=O)n(C3CC3)c(=O)c3c(Nc4ccc(I)cc4F)n(C)c(=O)c(C)c32)c1` [Trametinib], for which the relative viability runs as follows: (0.00017 µM) 0.979 ± 0.039; (0.00051 µM) 0.973 ± 0.036; (0.00152 µM) 0.969 ± 0.044; (0.00457 µM) 0.957 ± 0.022; (0.01372 µM) 0.973 ± 0.049; (0.04115 µM) 0.959 ± 0.037. The relative viability reads like this: (0.1235 µM) 0.946 ± 0.019; (0.3704 µM) 0.975 ± 0.031; (1.111 µM) 0.978 ± 0.06; (3.333 µM) 0.957 ± 0.052; (10 µM) 0.941 ± 0.062.
Take `C=CC(=O)N1CCC[C@@H](n2nc(-c3ccc(Oc4ccccc4)cc3)c3c(N)ncnc32)C1` [Ibrutinib]: the relative viability reads like this: (0.00017 µM) 0.985 ± 0.032; (0.00051 µM) 0.967 ± 0.043; (0.00152 µM) 0.993 ± 0.05; (0.00457 µM) 0.97 ± 0.038; (0.01372 µM) 0.976 ± 0.04; (0.04115 µM) 0.988 ± 0.032. Besides, the relative viability by setting is: (0.1235 µM) 0.957 ± 0.034; (0.3704 µM) 0.969 ± 0.015; (1.111 µM) 0.989 ± 0.04; (3.333 µM) 0.957 ± 0.031; (10 µM) 0.882 ± 0.013.
Consider `COc1cc2/c(=N/c3ccc(Br)cc3F)nc[nH]c2cc1OCC1CCN(C)CC1` [Vandetanib], for which the relative viability was found to be 0.944 ± 0.034 (0.00017 µM); 0.949 ± 0.031 (0.00051 µM); 0.957 ± 0.01 (0.00152 µM); 0.939 ± 0.047 (0.00457 µM); 0.927 ± 0.025 (0.01372 µM); 0.94 ± 0.041 (0.04115 µM). The relative viability by setting is: (0.1235 µM) 0.944 ± 0.053; (0.3704 µM) 0.922 ± 0.056; (1.111 µM) 0.804 ± 0.054; (3.333 µM) 0.648 ± 0.029; (10 µM) 0.0224 ± 0.01.
As to `C[C@@H]1COCCN1c1cc(-c2ccnn2C)c2ccnc(-c3ccn[nH]3)c2n1`, the relative viability runs as follows: (0.00017 µM) 0.987 ± 0.036; (0.00051 µM) 1.02 ± 0.044; (0.00152 µM) 1.04 ± 0.047; (0.00457 µM) 1.02 ± 0.04; (0.01372 µM) 1.01 ± 0.034; (0.04115 µM) 0.957 ± 0.0036. For the same compound, the relative viability (0.1235 µM) is 0.686 ± 0.026; the relative viability (0.3704 µM) was 0.279 ± 0.015; the relative viability (1.111 µM) was determined as 0.113 ± 0.096; the relative viability (3.333 µM) came to 0.155 ± 0.019; the relative viability (10 µM) amounted to 0.156 ± 0.0075.
`COc1cccc2c1C(=O)c1c(O)c3c(c(O)c1C2=O)C[C@@](O)(C(=O)CO)C[C@@H]3O[C@H]1C[C@H](N)[C@H](O)[C@H](C)O1` [Doxorubicin Hydrochloride] registered a relative viability (0.00017 µM) of 1.01 ± 0.032; a relative viability (0.00051 µM) of 1.03 ± 0.037; a relative viability (0.00152 µM) of 1.02 ± 0.014; a relative viability (0.00457 µM) of 1 ± 0.025; a relative viability (0.01372 µM) of 0.749 ± 0.0091; a relative viability (0.04115 µM) of 0.374 ± 0.014. The relative viability is 0.155 ± 0.011 (0.1235 µM); 0.036 ± 0.0064 (0.3704 µM); 0.0178 ± 0.0034 (1.111 µM); 0.00453 ± 5.8e-05 (3.333 µM); 0.0075 ± 0.00089 (10 µM).
For `O=C(Nc1cnn2ccc(N3CCC[C@@H]3c3cc(F)ccc3F)nc12)N1CC[C@H](O)C1` [Larotrectinib], the relative viability by setting is: (0.00017 µM) 0.95 ± 0.031; (0.00051 µM) 0.963 ± 0.01; (0.00152 µM) 0.978 ± 0.05; (0.00457 µM) 0.961 ± 0.024; (0.01372 µM) 0.9532 ± 0.0046; (0.04115 µM) 0.976 ± 0.016. This compound had a relative viability (0.1235 µM) of 0.961 ± 0.013; a relative viability (0.3704 µM) of 0.964 ± 0.014; a relative viability (1.111 µM) of 0.968 ± 0.022; a relative viability (3.333 µM) of 0.931 ± 0.052; a relative viability (10 µM) of 0.932 ± 0.042.
For the compound `Cc1cc(C)c(/C=C2\C(=O)Nc3ccccc32)[nH]1` [Semaxanib], the relative viability was determined as 0.962 ± 0.022 (0.00017 µM); 0.973 ± 0.034 (0.00051 µM); 0.961 ± 0.052 (0.00152 µM); 0.994 ± 0.02 (0.00457 µM); 0.969 ± 0.053 (0.01372 µM); 0.976 ± 0.013 (0.04115 µM). Moreover, the relative viability (0.1235 µM) is 0.93 ± 0.024; the relative viability (0.3704 µM) is 0.965 ± 0.026; the relative viability (1.111 µM) was determined as 0.915 ± 0.064; the relative viability (3.333 µM) came out at 0.871 ± 0.033; the relative viability (10 µM) turned out to be 0.792 ± 0.012.
As to `CC1(C)CNc2cc(NC(=O)c3cccnc3NCc3ccncc3)ccc21` [Motesanib], the relative viability (0.00017 µM) worked out at 0.969 ± 0.051; the relative viability (0.00051 µM) came to 0.962 ± 0.048; the relative viability (0.00152 µM) was found to be 0.957 ± 0.05; the relative viability (0.00457 µM) was 1.01 ± 0.038; the relative viability (0.01372 µM) came out at 0.964 ± 0.053; the relative viability (0.04115 µM) was determined as 0.994 ± 0.033. Also, the relative viability runs as follows: (0.1235 µM) 0.989 ± 0.035; (0.3704 µM) 0.991 ± 0.04; (1.111 µM) 0.989 ± 0.038; (3.333 µM) 0.974 ± 0.062; (10 µM) 0.846 ± 0.015.
With `Cc1nc(-c2cn3c(n2)-c2ccc(-c4cnn(C(C)(C)C(N)=O)c4)cc2OCC3)n(C(C)C)n1` [Taselisib], the relative viability reads like this: (0.00017 µM) 0.992 ± 0.028; (0.00051 µM) 0.983 ± 0.033; (0.00152 µM) 0.962 ± 0.026; (0.00457 µM) 0.949 ± 0.019; (0.01372 µM) 0.851 ± 0.044; (0.04115 µM) 0.694 ± 0.01. Further, the relative viability by setting is: (0.1235 µM) 0.556 ± 0.0063; (0.3704 µM) 0.472 ± 0.0073; (1.111 µM) 0.426 ± 0.016; (3.333 µM) 0.347 ± 0.0097; (10 µM) 0.224 ± 0.0038.
With `CC(C)NC(=O)C1CCC(n2c(NC(=O)c3ccc(F)cc3)nc3ccc(CN4CCC(C(C)(C)O)CC4)cc32)CC1` (stereo not drawn) [Belizatinib], the relative viability by setting is: (0.00017 µM) 1.01 ± 0.025; (0.00051 µM) 1.02 ± 0.021; (0.00152 µM) 0.997 ± 0.021; (0.00457 µM) 1.02 ± 0.013; (0.01372 µM) 1.03 ± 0.021; (0.04115 µM) 0.995 ± 0.021. The relative viability worked out at 0.907 ± 0.01 (0.1235 µM); 0.648 ± 0.02 (0.3704 µM); 0.455 ± 0.014 (1.111 µM); 0.395 ± 0.016 (3.333 µM); 0.261 ± 0.009 (10 µM).
On to `C=CC(=O)Nc1cccc(Oc2nc(Nc3ccc(N4CCN(C)CC4)cc3)nc3ccsc23)c1` [Olmutinib], for which the relative viability was found to be 0.914 ± 0.052 (0.00017 µM); 0.949 ± 0.025 (0.00051 µM); 0.953 ± 0.022 (0.00152 µM); 0.953 ± 0.0047 (0.00457 µM); 0.9443 ± 0.0083 (0.01372 µM); 0.978 ± 0.015 (0.04115 µM). Further, the relative viability (0.1235 µM) was found to be 0.979 ± 0.02; the relative viability (0.3704 µM) is 0.977 ± 0.012; the relative viability (1.111 µM) amounted to 0.9749 ± 0.0091; the relative viability (3.333 µM) is 0.931 ± 0.068; the relative viability (10 µM) was found to be 0.774 ± 0.074.
`CNC(=O)c1cc(Oc2ccc(NC(=O)Nc3ccc(Cl)c(C(F)(F)F)c3)c(F)c2)ccn1` [Regorafenib]: the relative viability is, setting by setting: (0.00017 µM) 0.965 ± 0.055; (0.00051 µM) 0.959 ± 0.053; (0.00152 µM) 0.991 ± 0.036; (0.00457 µM) 0.975 ± 0.047; (0.01372 µM) 0.983 ± 0.042; (0.04115 µM) 0.979 ± 0.014. Further, the relative viability runs as follows: (0.1235 µM) 0.986 ± 0.034; (0.3704 µM) 0.973 ± 0.052; (1.111 µM) 0.932 ± 0.058; (3.333 µM) 0.87 ± 0.043; (10 µM) 0.776 ± 0.033.
`COc1cc2c(cc1O)CCN[C@]21CS[C@@H]2c3c(OC(C)=O)c(C)c4c(c3[C@H](COC1=O)N1[C@@H]2[C@H]2c3c(cc(C)c(OC)c3O)C[C@@H]([C@@H]1O)N2C)OCO4` [Trabectedin]: the relative viability stood at 0.979 ± 0.032 (2 pM); 0.954 ± 0.052 (5 pM); 0.833 ± 0.06 (15 pM); 0.581 ± 0.008 (50 pM); 0.0757 ± 0.0065 (0.00014 µM); 0.0099 ± 0.002 (0.00041 µM). For the same compound, the relative viability amounted to 0.00377 ± 0.00023 (0.0012 µM); 0.0027 ± 0.00085 (0.0037 µM); 0.00663 ± 0.00032 (0.011 µM); 0.9532 ± 0.0081 (200 fM); 0.985 ± 0.056 (600 fM).
